According to USRE42890E1, “Furazanobenzimidazoles” (Basilea Pharmaceutica AG, priority 2003, dated 2011):

What follows are compounds tested on Jurkat (assay: MTS proliferation assay, Jurkat). Conditions: 72 h incubation, read-out: MTS proliferation assay IC 50 Jurkat.
Assay type: cell-based, human
Outline: (§1)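 Absorbance at 492 nm after 3 h with MTS reagent gave proliferation. This followed 72 h compound exposure (final 0.3, 1, 3, 10 μM) at 37 °C and 7.5% CO2. Cells had been plated 24 h earlier in complete RPMI-1640 with 5% or 10% FCS.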

SMILES	IC50
Cc1ccc(C(=O)Cn2c(-c3nonc3N)nc3ccccc32)cc1 [Example 44]	< 10 nM
Cl.Nc1ccc(OCn2c(-c3nonc3N)nc3ccccc32)cc1 [Example 100]	100 to 1000 nM

What follows are compounds tested on Jily (assay: MTS proliferation assay, Jily). Conditions: 72 h incubation, read-out: MTS proliferation assay IC 50 Jily.
Assay type: cell-based
Outline: (§2)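 Antiproliferative read-out by MTS (3 h, A492) after 72 h compound exposure at final 0.3–10 μM (four concentrations). Cells were plated 24 h earlier in RPMI-1640 containing 5% or 10% FCS, cultured at 37 °C with 7.5% CO2.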

SMILES	IC50
Cc1ccc(C(=O)Cn2c(-c3nonc3N)nc3ccccc32)cc1 [Example 44]	10 to 100 nM
Cl.Nc1ccc(OCn2c(-c3nonc3N)nc3ccccc32)cc1 [Example 100]	> 1000 nM

What follows are compounds tested on HT1080 (assay: MTS proliferation assay, HT1080). Conditions: HT1080, 72 h incubation; read-out: MTS proliferation assay IC 50 HT1080.
Assay type: cell-based, human
Outline: as §1

SMILES	IC50
Cc1ccc(C(=O)Cn2c(-c3nonc3N)nc3ccccc32)cc1 [Example 44]	10 to 100 nM
Cl.Nc1ccc(OCn2c(-c3nonc3N)nc3ccccc32)cc1 [Example 100]	> 1000 nM

What follows are compounds tested on HeLa (assay: MTS proliferation assay, HeLa). Conditions: 72 h incubation, read-out: MTS proliferation assay IC 50 HeLa.
Assay type: cell-based, human
Outline: as §1

SMILES	IC50
Cc1ccc(C(=O)Cn2c(-c3nonc3N)nc3ccccc32)cc1 [Example 44]	10 to 100 nM
Cl.Nc1ccc(OCn2c(-c3nonc3N)nc3ccccc32)cc1 [Example 100]	> 1000 nM

What follows are compounds tested on MRC5 (assay: MTS proliferation assay, MRC5). Conditions: MRC5, 72 h incubation; read-out: MTS proliferation assay IC 50 MRC5.
Assay type: cell-based
Outline: as §2

SMILES	IC50
Cc1ccc(C(=O)Cn2c(-c3nonc3N)nc3ccccc32)cc1 [Example 44]	10 to 100 nM
Cl.Nc1ccc(OCn2c(-c3nonc3N)nc3ccccc32)cc1 [Example 100]	> 1000 nM

Each compound was assayed on adherent cells or suspension cells (assay: Hoechst 33342 nuclear staining (fraction of apoptotic nuclei)). Conditions: H460, conc 0.01 μm.
Assay type: cell-based
Design: key: 0 relating to no activity; 1 relating to weak activity comprising less than 70% of the cells; score 2 relating to strong activity comprising more than 70% of the cells

SMILES	Hoechst 33342 nuclear staining score
Cc1ccc(C(=O)Cn2c(-c3nonc3N)nc3ccccc32)cc1 [Example 44]	0
Cl.Nc1ccc(OCn2c(-c3nonc3N)nc3ccccc32)cc1 [Example 100]	0

Same assay, conditions: H460, conc 0.1 μm

SMILES	Hoechst 33342 nuclear staining score
Cc1ccc(C(=O)Cn2c(-c3nonc3N)nc3ccccc32)cc1 [Example 44]	2 (score 2 relating to strong activity comprising more than 70% of the cells)
Cl.Nc1ccc(OCn2c(-c3nonc3N)nc3ccccc32)cc1 [Example 100]	0

Same assay, conditions: H460, conc 1 μm

SMILES	Hoechst 33342 nuclear staining score
Cc1ccc(C(=O)Cn2c(-c3nonc3N)nc3ccccc32)cc1 [Example 44]	2 (score 2 relating to strong activity comprising more than 70% of the cells)
Cl.Nc1ccc(OCn2c(-c3nonc3N)nc3ccccc32)cc1 [Example 100]	0

Same assay, conditions: HeLa, conc 0.01 μm

SMILES	Hoechst 33342 nuclear staining score
Cc1ccc(C(=O)Cn2c(-c3nonc3N)nc3ccccc32)cc1 [Example 44]	0
Cl.Nc1ccc(OCn2c(-c3nonc3N)nc3ccccc32)cc1 [Example 100]	0

Same assay, conditions: HeLa, conc 0.1 μm

SMILES	Hoechst 33342 nuclear staining score
Cc1ccc(C(=O)Cn2c(-c3nonc3N)nc3ccccc32)cc1 [Example 44]	1 (1 relating to weak activity comprising less than 70% of the cells)
Cl.Nc1ccc(OCn2c(-c3nonc3N)nc3ccccc32)cc1 [Example 100]	0

Same assay, conditions: HeLa, conc 1 μm

SMILES	Hoechst 33342 nuclear staining score
Cc1ccc(C(=O)Cn2c(-c3nonc3N)nc3ccccc32)cc1 [Example 44]	2 (score 2 relating to strong activity comprising more than 70% of the cells)
Cl.Nc1ccc(OCn2c(-c3nonc3N)nc3ccccc32)cc1 [Example 100]	0

Same assay, conditions: Jily, conc 0.01 μm

SMILES	Hoechst 33342 nuclear staining score
Cc1ccc(C(=O)Cn2c(-c3nonc3N)nc3ccccc32)cc1 [Example 44]	0
Cl.Nc1ccc(OCn2c(-c3nonc3N)nc3ccccc32)cc1 [Example 100]	0

Same assay, conditions: Jily, conc 0.1 μm

SMILES	Hoechst 33342 nuclear staining score
Cc1ccc(C(=O)Cn2c(-c3nonc3N)nc3ccccc32)cc1 [Example 44]	2 (score 2 relating to strong activity comprising more than 70% of the cells)
Cl.Nc1ccc(OCn2c(-c3nonc3N)nc3ccccc32)cc1 [Example 100]	0

Same assay, conditions: Jily, conc 1 μm

SMILES	Hoechst 33342 nuclear staining score
Cc1ccc(C(=O)Cn2c(-c3nonc3N)nc3ccccc32)cc1 [Example 44]	2 (score 2 relating to strong activity comprising more than 70% of the cells)
Cl.Nc1ccc(OCn2c(-c3nonc3N)nc3ccccc32)cc1 [Example 100]	1 (1 relating to weak activity comprising less than 70% of the cells)

Same assay, conditions: Jurkat, conc 0.01 μm

SMILES	Hoechst 33342 nuclear staining score
Cc1ccc(C(=O)Cn2c(-c3nonc3N)nc3ccccc32)cc1 [Example 44]	0
Cl.Nc1ccc(OCn2c(-c3nonc3N)nc3ccccc32)cc1 [Example 100]	0

Same assay, conditions: Jurkat, conc 0.1 μm

SMILES	Hoechst 33342 nuclear staining score
Cc1ccc(C(=O)Cn2c(-c3nonc3N)nc3ccccc32)cc1 [Example 44]	2 (score 2 relating to strong activity comprising more than 70% of the cells)
Cl.Nc1ccc(OCn2c(-c3nonc3N)nc3ccccc32)cc1 [Example 100]	0

Same assay, conditions: Jurkat, conc 1 μm

SMILES	Hoechst 33342 nuclear staining score
Cc1ccc(C(=O)Cn2c(-c3nonc3N)nc3ccccc32)cc1 [Example 44]	2 (score 2 relating to strong activity comprising more than 70% of the cells)
Cl.Nc1ccc(OCn2c(-c3nonc3N)nc3ccccc32)cc1 [Example 100]	1 (1 relating to weak activity comprising less than 70% of the cells)

Same assay, conditions: MRC5, conc 0.01 μm

SMILES	Hoechst 33342 nuclear staining score
Cc1ccc(C(=O)Cn2c(-c3nonc3N)nc3ccccc32)cc1 [Example 44]	0
Cl.Nc1ccc(OCn2c(-c3nonc3N)nc3ccccc32)cc1 [Example 100]	0

Same assay, conditions: MRC5, conc 0.1 μm

SMILES	Hoechst 33342 nuclear staining score
Cc1ccc(C(=O)Cn2c(-c3nonc3N)nc3ccccc32)cc1 [Example 44]	0
Cl.Nc1ccc(OCn2c(-c3nonc3N)nc3ccccc32)cc1 [Example 100]	0

Same assay, conditions: MRC5, conc 1 μm

SMILES	Hoechst 33342 nuclear staining score
Cc1ccc(C(=O)Cn2c(-c3nonc3N)nc3ccccc32)cc1 [Example 44]	2 (score 2 relating to strong activity comprising more than 70% of the cells)
Cl.Nc1ccc(OCn2c(-c3nonc3N)nc3ccccc32)cc1 [Example 100]	0

Same assay, conditions: PBLs, conc 0.01 μm

SMILES	Hoechst 33342 nuclear staining score
Cc1ccc(C(=O)Cn2c(-c3nonc3N)nc3ccccc32)cc1 [Example 44]	0
Cl.Nc1ccc(OCn2c(-c3nonc3N)nc3ccccc32)cc1 [Example 100]	0

Same assay, conditions: PBLs, conc 0.1 μm

SMILES	Hoechst 33342 nuclear staining score
Cc1ccc(C(=O)Cn2c(-c3nonc3N)nc3ccccc32)cc1 [Example 44]	0
Cl.Nc1ccc(OCn2c(-c3nonc3N)nc3ccccc32)cc1 [Example 100]	0

Same assay, conditions: PBLs, conc 1 μm

SMILES	Hoechst 33342 nuclear staining score
Cc1ccc(C(=O)Cn2c(-c3nonc3N)nc3ccccc32)cc1 [Example 44]	0
Cl.Nc1ccc(OCn2c(-c3nonc3N)nc3ccccc32)cc1 [Example 100]	0
